{
  "source": "ChEMBL document CHEMBL3822432",
  "about": "“Antibacterial and anticancer activity of a series of novel peptides incorporating cyclic tetra-substituted C(α) amino acids” (Bioorg Med Chem, 2016)",
  "key": {"[1]": {"experiment": "(§1) Antibacterial activity against Salmonella enterica LT2 Typhimurium ATCC 15277 by two fold serial dilution method", "type": "functional"}, "A549": {"test_system": "A549", "experiment": "Antiproliferative activity against human A549 cells after 72 hrs by Celltiter-Glo luminescent cell viability assay", "type": "functional, cell-based", "conditions": "A549, 72 h"}, "Enterococcus faecalis": {"test_system": "Enterococcus faecalis", "experiment": "Antibacterial activity against Enterococcus faecalis Portland ATCC 29212 by two fold serial dilution method", "type": "functional", "conditions": "ATCC 29212 Portland"}, "[2]": {"experiment": "Antibacterial activity against Francisella tularensis SCHU S4 NR-643 by two fold serial dilution method", "type": "functional"}, "[3]": {"test_system": "Mycobacterium tuberculosis", "experiment": "Antibacterial activity against Mycobacterium tuberculosis H37Ra ATCC 2517 by two fold serial dilution method", "type": "functional"}, "Klebsiella aerogenes [4]": {"test_system": "Klebsiella aerogenes", "experiment": "Antibacterial activity against carbapenem-resistant Enterobacter aerogenes NCDC819-56 ATCC 13048 by two fold serial dilution method", "type": "functional"}, "Neisseria gonorrhoeae": {"test_system": "Neisseria gonorrhoeae", "experiment": "Antibacterial activity against Neisseria gonorrhoeae F-18 ATCC 49226 by two fold serial dilution method", "type": "functional"}, "Streptococcus pneumoniae": {"test_system": "Streptococcus pneumoniae", "experiment": "Antibacterial activity against Streptococcus pneumoniae 262 ATCC 49619 by two fold serial dilution method", "type": "functional"}, "[5]": {"experiment": "Antiproliferative activity against human COLO205 cells after 72 hrs by Celltiter-Glo luminescent cell viability assay", "type": "functional, cell-based", "conditions": "COLO 205, 72 h"}, "MCF7": {"test_system": "MCF7", "experiment": "Antiproliferative activity against human MCF7 cells after 72 hrs by Celltiter-Glo luminescent cell viability assay", "type": "functional, cell-based", "conditions": "MCF7, 72 h"}, "[6]": {"experiment": "Antibacterial activity against carbapenem-resistant Klebsiella pneumoniae K6 ATCC 700603 by two fold serial dilution method", "type": "functional, Klebsiella pneumoniae 700603"}, "Pseudomonas aeruginosa [7]": {"test_system": "Pseudomonas aeruginosa", "experiment": "Antibacterial activity against Pseudomonas aeruginosa Boston 41501 ATCC 27853 by two fold serial dilution method", "type": "functional"}, "[8]": {"experiment": "Antiproliferative activity against human UACC62 cells after 72 hrs by Celltiter-Glo luminescent cell viability assay", "type": "functional, cell-based", "conditions": "UACC-62, 72 h"}, "Pseudomonas aeruginosa [9]": {"test_system": "Pseudomonas aeruginosa", "experiment": "Potency index, ratio of Ac-GF-Tic-Oic-GK-Tic-Oic-GF-Tic-Oic-GK-Tic-KKKK-CONH2 MIC to compound MIC for Pseudomonas aeruginosa Boston 41501 ATCC 27853", "type": "functional"}, "[10]": {"experiment": "Antibacterial activity against Yersinia pestis CO92 NR641 by two fold serial dilution method", "type": "functional"}, "[11]": {"experiment": "Antiproliferative activity against human PC3 cells after 72 hrs by Celltiter-Glo luminescent cell viability assay", "type": "functional, cell-based", "conditions": "PC-3, 72 h"}, "Klebsiella aerogenes [12]": {"test_system": "Klebsiella aerogenes", "experiment": "Potency index, ratio of Ac-GF-Tic-Oic-GK-Tic-Oic-GF-Tic-Oic-GK-Tic-KKKK-CONH2 MIC to compound MIC for carbapenem-resistant Enterobacter aerogenes NCDC819-56 ATCC 13048", "type": "functional", "conditions": "pooled result: one value given for 3 cell lines, strains, targets or settings"}, "[13]": {"experiment": "Antiproliferative activity against human IGROV1 cells after 72 hrs by Celltiter-Glo luminescent cell viability assay", "type": "functional, cell-based", "conditions": "IGROV-1, 72 h"}, "[14]": {"experiment": "Antiproliferative activity against human MIAPaCa2 cells after 72 hrs by Celltiter-Glo luminescent cell viability assay", "type": "functional, cell-based", "conditions": "MIA PaCa-2, 72 h"}, "Acinetobacter baumannii [15]": {"test_system": "Acinetobacter baumannii", "experiment": "Antibacterial activity against Acinetobacter baumannii B5W71 ATCC 15149 by two fold serial dilution method", "type": "functional"}, "Staphylococcus aureus [16]": {"test_system": "Staphylococcus aureus", "experiment": "Antibacterial activity against methicillin-resistant Staphylococcus aureus USA 300 NRS 384 by two fold serial dilution method", "type": "functional"}, "A498": {"test_system": "A498", "experiment": "Antiproliferative activity against human A498 cells after 72 hrs by Celltiter-Glo luminescent cell viability assay", "type": "functional, cell-based", "conditions": "A498, 72 h"}, "RL": {"test_system": "RL", "experiment": "Antiproliferative activity against human RL cells after 72 hrs by Celltiter-Glo luminescent cell viability assay", "type": "functional, cell-based"}, "[17]": {"experiment": "Antiproliferative activity against human DLD1 cells after 72 hrs by Celltiter-Glo luminescent cell viability assay", "type": "functional, cell-based", "conditions": "DLD-1, 72 h"}, "[18]": {"experiment": "Antibacterial activity against Clostridium difficile VIP 10463 ATCC 43255 by two fold serial dilution method", "type": "functional, Clostridium difficile ATCC 43255", "conditions": "Clostridioides difficile"}, "[19]": {"experiment": "Antibacterial activity against Bacillus anthracis Ames NR-3838 by two fold serial dilution method", "type": "functional, Bacillus anthracis str. Ames"}, "Staphylococcus aureus [20]": {"test_system": "Staphylococcus aureus", "experiment": "Antibacterial activity against Staphylococcus aureus Seattle 1945 ATCC 25923 by two fold serial dilution method", "type": "functional"}, "NCI-H69": {"test_system": "NCI-H69", "experiment": "Antiproliferative activity against human NCI-H69 cells after 72 hrs by Celltiter-Glo luminescent cell viability assay", "type": "functional, cell-based", "conditions": "NCI-H69, 72 h"}, "Enterococcus faecium": {"test_system": "Enterococcus faecium", "experiment": "Potency index, ratio of Ac-GF-Tic-Oic-GK-Tic-Oic-GF-Tic-Oic-GK-Tic-KKKK-CONH2 MIC to compound MIC for Enterococcus faecium", "type": "functional"}, "CFPAC-1": {"test_system": "CFPAC-1", "experiment": "Antiproliferative activity against human CFPAC-1 cells after 72 hrs by Celltiter-Glo luminescent cell viability assay", "type": "functional, cell-based", "conditions": "CFPAC-1, 72 h"}, "[21]": {"test_system": "Burkholderia pseudomallei", "experiment": "Antibacterial activity against Burkholderia pseudomallei AHS 1 NCTC 8016 by two fold serial dilution method", "type": "functional"}, "Acinetobacter baumannii [22]": {"test_system": "Acinetobacter baumannii", "experiment": "Potency index, ratio of Ac-GF-Tic-Oic-GK-Tic-Oic-GF-Tic-Oic-GK-Tic-KKKK-CONH2 MIC to compound MIC for Acinetobacter baumannii B5W71 ATCC 15149", "type": "functional"}, "[23]": {"test_system": "Salmonella enterica subsp. enterica serovar Typhimurium str. LT2", "experiment": "as §1", "type": "functional"}},
  "data": [
    {"compound": "CC(=O)NCC(=O)N[C@H](Cc1ccccc1)C(=O)NC1(C(=O)NCC(=O)N2C(C(=O)N[C@@H](CCCCN)C(=O)NC3(C(=O)NCC(=O)N4C(C(=O)N[C@@H](Cc5ccccc5)C(=O)NC5(C(=O)NCC(=O)N6C(C(=O)NCC(=O)N[C@@H](CCCCN)C(=O)N7C(C(=O)N[C@H](CCCCN)C(=O)N[C@H](CCCCN)C(=O)N[C@H](CCCCN)C(=O)N[C@H](CCCCN)C(N)=O)CC8CCCCC87)CC7CCCCC76)CCCCC5)CC5CCCCC54)CCCCC3)CC3CCCCC32)CCCCC1", "note": "(stereo in doubt)", "values": [
      {"measurement": "MIC", "setting": "[1]", "value": 41.9, "unit": "µM"},
      {"measurement": "IC50", "setting": "A549", "value": "> 7.5", "unit": "µM"},
      {"measurement": "MIC", "setting": "Enterococcus faecalis", "value": "> 42", "unit": "µM"},
      {"measurement": "MIC", "setting": "[2]", "value": 20.9, "unit": "µM"},
      {"measurement": "MIC", "setting": "[3]", "value": 20.9, "unit": "µM"},
      {"measurement": "MIC", "setting": "Klebsiella aerogenes [4]", "value": "> 42", "unit": "µM"},
      {"measurement": "MIC", "setting": "Neisseria gonorrhoeae", "value": 20.9, "unit": "µM"},
      {"measurement": "MIC", "setting": "Streptococcus pneumoniae", "value": "> 42", "unit": "µM"},
      {"measurement": "IC50", "setting": "[5]", "value": "> 7.5", "unit": "µM"},
      {"measurement": "IC50", "setting": "MCF7", "value": "> 7.5", "unit": "µM"},
      {"measurement": "MIC", "setting": "[6]", "value": "> 42", "unit": "µM"},
      {"measurement": "MIC", "setting": "Pseudomonas aeruginosa [7]", "value": 20.9, "unit": "µM"},
      {"measurement": "IC50", "setting": "[8]", "value": "> 7.5", "unit": "µM"},
      {"measurement": "Ratio", "setting": "Pseudomonas aeruginosa [9]", "value": 0.5232},
      {"measurement": "MIC", "setting": "[10]", "value": "> 42", "unit": "µM"},
      {"measurement": "IC50", "setting": "[11]", "value": "> 7.5", "unit": "µM"},
      {"measurement": "Ratio", "setting": "Klebsiella aerogenes [12]", "value": 1.05},
      {"measurement": "IC50", "setting": "[13]", "value": "> 7.5", "unit": "µM"},
      {"measurement": "IC50", "setting": "[14]", "value": "> 7.5", "unit": "µM"},
      {"measurement": "MIC", "setting": "Acinetobacter baumannii [15]", "value": 20.9, "unit": "µM"},
      {"measurement": "MIC", "setting": "Staphylococcus aureus [16]", "value": "> 42", "unit": "µM"},
      {"measurement": "IC50", "setting": "A498", "value": "> 7.5", "unit": "µM"},
      {"measurement": "IC50", "setting": "RL", "value": 6.7, "unit": "µM"},
      {"measurement": "IC50", "setting": "[17]", "value": "> 7.5", "unit": "µM"},
      {"measurement": "MIC", "setting": "[18]", "value": 2.62, "unit": "µM"},
      {"measurement": "MIC", "setting": "[19]", "value": 20.9, "unit": "µM"},
      {"measurement": "MIC", "setting": "Staphylococcus aureus [20]", "value": "> 42", "unit": "µM"},
      {"measurement": "IC50", "setting": "NCI-H69", "value": "> 7.5", "unit": "µM"},
      {"measurement": "Ratio", "setting": "Enterococcus faecium", "value": 4.2},
      {"measurement": "IC50", "setting": "CFPAC-1", "value": "> 7.5", "unit": "µM"},
      {"measurement": "MIC", "setting": "[21]", "value": "> 42", "unit": "µM"},
      {"measurement": "Ratio", "setting": "Acinetobacter baumannii [22]", "value": 8.372}
    ]},
    {"compound": "GENTAMICIN", "values": [
      {"measurement": "MIC", "setting": "[23]", "value": 2.09, "unit": "µM"},
      {"measurement": "MIC", "setting": "Klebsiella aerogenes [4]", "value": 1.04, "unit": "µM"},
      {"measurement": "MIC", "setting": "Pseudomonas aeruginosa [7]", "value": 8.3, "unit": "µM"},
      {"measurement": "MIC", "setting": "Acinetobacter baumannii [15]", "value": 2.09, "unit": "µM"}
    ]}
  ]
}
